This note sets out measurements from ChEMBL document CHEMBL5465560, “Selectivity Literature for EUbOPEN Chemogenomic Library” (2024).

Experiment [1] concerns the target T1, Ephrin type-A receptor 1 (Homo sapiens) (UniProt P21709).
T1 sequence (whole entry): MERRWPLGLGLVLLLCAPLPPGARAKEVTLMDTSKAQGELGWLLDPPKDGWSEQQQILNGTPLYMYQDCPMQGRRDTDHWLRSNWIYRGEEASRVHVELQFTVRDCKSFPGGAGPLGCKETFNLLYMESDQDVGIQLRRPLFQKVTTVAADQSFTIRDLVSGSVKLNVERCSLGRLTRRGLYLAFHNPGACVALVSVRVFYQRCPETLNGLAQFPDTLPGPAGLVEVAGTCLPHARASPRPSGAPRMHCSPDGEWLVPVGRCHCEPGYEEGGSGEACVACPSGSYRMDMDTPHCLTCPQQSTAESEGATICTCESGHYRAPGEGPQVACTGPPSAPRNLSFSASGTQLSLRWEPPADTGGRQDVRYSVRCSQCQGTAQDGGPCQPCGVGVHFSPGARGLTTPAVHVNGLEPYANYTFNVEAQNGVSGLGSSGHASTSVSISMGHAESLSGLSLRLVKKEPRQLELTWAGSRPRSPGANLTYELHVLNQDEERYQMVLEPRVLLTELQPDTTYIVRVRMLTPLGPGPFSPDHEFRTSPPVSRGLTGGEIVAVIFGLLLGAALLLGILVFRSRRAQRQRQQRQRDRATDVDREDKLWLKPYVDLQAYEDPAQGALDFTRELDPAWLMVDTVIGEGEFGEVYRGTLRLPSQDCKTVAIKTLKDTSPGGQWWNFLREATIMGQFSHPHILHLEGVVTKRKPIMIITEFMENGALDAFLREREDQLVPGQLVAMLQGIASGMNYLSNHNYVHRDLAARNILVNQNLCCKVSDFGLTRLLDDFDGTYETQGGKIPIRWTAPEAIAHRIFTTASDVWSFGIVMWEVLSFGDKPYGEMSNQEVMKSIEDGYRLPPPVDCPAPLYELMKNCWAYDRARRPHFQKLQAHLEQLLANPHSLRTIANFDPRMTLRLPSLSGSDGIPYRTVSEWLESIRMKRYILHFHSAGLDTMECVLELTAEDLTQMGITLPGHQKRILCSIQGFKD
Kind of experiment: Selectivity interaction (Kinase panel (Z-LYTE Assay)) EUB0001632a EPHA1. As to conditions: at 10 µM.

Experiment [2] has as its target STE20/SPS1-related proline-alanine-rich protein kinase (Homo sapiens) (UniProt Q9UEW8). Put plainly: Selectivity interaction (KinomeScan (DiscoverX)) EUB0000695a STK39. As to conditions: at 100 nM.
Experiment [3] addresses T2, Dual specificity protein kinase TTK (Homo sapiens) (UniProt P33981).
T2 sequence (whole entry): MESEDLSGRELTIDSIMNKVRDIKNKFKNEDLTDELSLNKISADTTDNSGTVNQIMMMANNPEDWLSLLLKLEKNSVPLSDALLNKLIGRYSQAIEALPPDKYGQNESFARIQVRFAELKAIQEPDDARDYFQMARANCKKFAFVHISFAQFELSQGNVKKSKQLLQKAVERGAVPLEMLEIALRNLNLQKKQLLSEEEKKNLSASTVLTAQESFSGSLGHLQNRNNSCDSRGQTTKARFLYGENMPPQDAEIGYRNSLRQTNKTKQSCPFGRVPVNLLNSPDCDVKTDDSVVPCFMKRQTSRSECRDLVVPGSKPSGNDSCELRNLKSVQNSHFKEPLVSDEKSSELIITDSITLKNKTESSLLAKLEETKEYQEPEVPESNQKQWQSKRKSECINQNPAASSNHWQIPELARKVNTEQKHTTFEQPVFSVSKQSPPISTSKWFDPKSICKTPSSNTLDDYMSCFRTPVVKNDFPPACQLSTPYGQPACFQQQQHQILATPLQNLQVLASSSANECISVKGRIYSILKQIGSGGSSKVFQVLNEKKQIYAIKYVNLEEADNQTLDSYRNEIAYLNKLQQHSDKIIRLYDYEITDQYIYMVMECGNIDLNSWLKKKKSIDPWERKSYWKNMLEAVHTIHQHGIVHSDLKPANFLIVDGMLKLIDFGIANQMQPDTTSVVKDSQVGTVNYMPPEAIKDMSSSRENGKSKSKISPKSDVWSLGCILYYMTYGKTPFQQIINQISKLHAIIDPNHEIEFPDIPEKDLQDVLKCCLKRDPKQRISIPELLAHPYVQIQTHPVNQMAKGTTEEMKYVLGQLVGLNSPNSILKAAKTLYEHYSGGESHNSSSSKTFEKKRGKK
As to conditions: at 10 µM.

In experiment [4] the target is Interleukin-1 receptor-associated kinase 1 (Homo sapiens) (UniProt P51617). Kind of experiment: Selectivity interaction (KinomeScan (DiscoverX)) EUB0000045b IRAK1.
For experiment [5], the target named is T3, Uncharacterized serine/threonine-protein kinase SBK3 (Homo sapiens) (UniProt P0C264).
T3 sequence (whole entry): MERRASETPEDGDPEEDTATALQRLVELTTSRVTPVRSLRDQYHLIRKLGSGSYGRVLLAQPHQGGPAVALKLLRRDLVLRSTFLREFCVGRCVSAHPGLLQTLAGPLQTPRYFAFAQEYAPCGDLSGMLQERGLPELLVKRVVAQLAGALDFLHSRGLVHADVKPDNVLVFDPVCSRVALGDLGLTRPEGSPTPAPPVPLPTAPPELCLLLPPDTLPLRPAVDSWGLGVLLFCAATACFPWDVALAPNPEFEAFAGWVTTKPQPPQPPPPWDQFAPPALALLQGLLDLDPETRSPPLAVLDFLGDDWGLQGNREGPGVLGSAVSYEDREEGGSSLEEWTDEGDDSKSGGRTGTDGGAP
Put plainly: Selectivity interaction (KinomeScan (DiscoverX)) EUB0001049a SBK3. As to conditions: at 1 µM.

Experiment [6] deals with T4, Aurora kinase C (Homo sapiens) (UniProt Q9UQB9).
T4 sequence (whole entry): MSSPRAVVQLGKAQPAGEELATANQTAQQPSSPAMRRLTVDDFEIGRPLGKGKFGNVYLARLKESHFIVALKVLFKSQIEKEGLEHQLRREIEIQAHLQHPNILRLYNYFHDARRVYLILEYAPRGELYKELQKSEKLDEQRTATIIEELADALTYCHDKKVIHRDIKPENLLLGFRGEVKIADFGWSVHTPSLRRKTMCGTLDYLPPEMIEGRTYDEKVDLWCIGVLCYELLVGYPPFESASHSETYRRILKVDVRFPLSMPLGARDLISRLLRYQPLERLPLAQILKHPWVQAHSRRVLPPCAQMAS
Kind of experiment: Selectivity interaction (KinomeScan (DiscoverX)) EUB0000655a AURKC. As to conditions: at 10 µM.

The target of experiment [7] is Fibroblast growth factor receptor 2 (Homo sapiens) (UniProt P21802). Kind of experiment: Selectivity interaction (KinomeScan (DiscoverX)) EUB0001079a FGFR2. As to conditions: at 1 µM.
Sequence of Fibroblast growth factor receptor 2 (Homo sapiens) (P21802 22-821 limits assumed): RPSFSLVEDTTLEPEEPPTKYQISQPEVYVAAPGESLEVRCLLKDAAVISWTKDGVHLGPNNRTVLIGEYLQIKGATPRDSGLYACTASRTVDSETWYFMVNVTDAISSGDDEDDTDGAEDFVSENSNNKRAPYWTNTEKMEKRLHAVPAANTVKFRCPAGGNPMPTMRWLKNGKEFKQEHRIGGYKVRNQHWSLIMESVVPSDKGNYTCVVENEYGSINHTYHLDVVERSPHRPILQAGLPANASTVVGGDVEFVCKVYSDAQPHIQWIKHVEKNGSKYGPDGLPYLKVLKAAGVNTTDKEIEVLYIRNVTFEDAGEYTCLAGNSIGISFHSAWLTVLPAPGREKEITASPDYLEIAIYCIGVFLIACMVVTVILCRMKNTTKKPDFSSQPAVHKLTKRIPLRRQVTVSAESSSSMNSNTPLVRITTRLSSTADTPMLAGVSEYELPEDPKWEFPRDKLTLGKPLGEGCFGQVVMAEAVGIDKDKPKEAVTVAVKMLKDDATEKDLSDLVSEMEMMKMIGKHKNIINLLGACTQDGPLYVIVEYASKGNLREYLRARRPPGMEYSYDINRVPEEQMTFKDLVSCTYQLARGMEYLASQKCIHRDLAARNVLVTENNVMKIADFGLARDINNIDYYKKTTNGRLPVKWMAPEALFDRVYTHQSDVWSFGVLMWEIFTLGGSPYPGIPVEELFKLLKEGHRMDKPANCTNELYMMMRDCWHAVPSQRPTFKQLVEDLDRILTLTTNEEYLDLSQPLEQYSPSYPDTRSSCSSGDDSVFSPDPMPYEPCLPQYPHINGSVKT

Sequence of Interleukin-1 receptor-associated kinase 1 (Homo sapiens) (P51617 whole entry, looked up): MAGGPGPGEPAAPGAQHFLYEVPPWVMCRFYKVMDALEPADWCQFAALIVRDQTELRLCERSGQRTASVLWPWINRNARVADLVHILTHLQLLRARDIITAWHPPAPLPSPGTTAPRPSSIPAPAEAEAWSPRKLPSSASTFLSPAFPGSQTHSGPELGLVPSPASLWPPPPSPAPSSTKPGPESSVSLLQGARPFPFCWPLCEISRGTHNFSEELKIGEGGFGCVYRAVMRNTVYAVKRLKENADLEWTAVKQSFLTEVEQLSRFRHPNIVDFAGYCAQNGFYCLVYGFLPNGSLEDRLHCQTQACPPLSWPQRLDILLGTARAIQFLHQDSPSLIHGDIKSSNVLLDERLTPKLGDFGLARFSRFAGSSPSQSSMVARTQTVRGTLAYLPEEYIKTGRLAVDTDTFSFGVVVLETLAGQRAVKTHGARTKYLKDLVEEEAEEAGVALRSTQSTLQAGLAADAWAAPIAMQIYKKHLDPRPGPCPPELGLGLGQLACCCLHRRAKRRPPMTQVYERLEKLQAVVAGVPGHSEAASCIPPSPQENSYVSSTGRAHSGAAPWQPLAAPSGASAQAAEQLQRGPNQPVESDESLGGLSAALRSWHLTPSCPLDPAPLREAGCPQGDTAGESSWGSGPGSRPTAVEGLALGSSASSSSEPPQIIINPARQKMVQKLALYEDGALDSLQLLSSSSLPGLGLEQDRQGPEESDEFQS

Regarding `Cn1cc(-n2cnc3c(NCc4nc5cc(Cl)c(Cl)cc5[nH]4)nc(N4CCOCC4)nc32)cn1`, the % of control in experiment [1] turned out to be 2.3%.
In turn, `Cc1cc(F)c(C(=O)Nc2cccc(-c3nncn3C(C)C)n2)cc1-n1cnc(C2CC2)c1` came in with a % of control in experiment [2] of 79%.
`Cc1cc([C@@H](C)Nc2ccccc2C(=O)O)c2nc(N3CCOCC3)cc(=O)n2c1` [AZD-6482] gave a % of control in experiment [3] of 100%.
As for `C=CC(=O)Nc1cc(-n2c(=O)ccc3cnc4ccc(-c5ccc(NS(C)(=O)=O)cc5)cc4c32)ccc1C`, the % of control in experiment [4] (at 1 µM) stood at 72%; in experiment [4] (at 10 µM) it was 60%.
In experiment [5], `COc1cc(Nc2nc(C)cc(-c3cnn4nc(OC)ccc34)n2)cc(C(F)(F)F)c1` registered a % of control of 87%.
Take `CN(C)CCOc1ccc(-c2nc(-c3ccncc3)c(-c3ccc4c(c3)CC/C4=N\O)[nH]2)cc1`: the % of control in experiment [6] was 100%.
Consider `Nc1cnc(N2CCc3cc(S(=O)(=O)Nc4c(F)cc(Cl)cc4F)cc(N4CCCC4=O)c32)nc1` [TP-020n], for which the % of control in experiment [7] came to 100%.
